Measured values reported in patent US20250282768A1 (Janssen Pharmaceutica NV, priority 2022, published 2025).

Each compound was assayed on p-IKKa levels in L363 (NIK translocated multiple myeloma) cells (assay: Assay 2: Effect of compounds on p-IKKa levels in L363 (NIK translocated multiple myeloma) cells). Details: Homo sapiens, L-363, 6 h, read-out: Assay 2 IC50 (nM), p-IKKa (Ser 176/180) in BAFF stimulated L363 cells with MG132, 6 h; average if tested more than once.
Assay type: cell-based
How it was run: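 L363 cells incubated overnight ± 250 ng/ml BAFF, then 6 h at 37 °C with compound (0.3% DMSO) ± 10 μM MG132. Lysates assayed for p-IKKa (Ser176/180) by AlphaLISA SureFire. IC50 from sigmoidal fit of % inhibition normalized to BAFF/MG132-stimulated and unstimulated controls.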

Structure (SMILES)	IC50 [nM]
CN1CC[C@@](O)(c2cc(-c3cccc(-c4ccnc(Nc5cnn(CC(F)(F)F)c5)n4)n3)no2)C1=O [Example 42, (R)-3-Hydroxy-1-methyl-3-(3-(6-(2-((1-(2,2,2-trifluoroethyl)-1H-pyrazol-4-yl)amino)pyrimidin-4-yl)pyridin-2-yl)isoxazol-5-yl)pyrrolidin-2-one]	< 50
C[C@@H](Nc1nccc(-c2cccc(-c3cc([C@]4(O)CCN(C)C4=O)on3)n2)n1)c1ccccn1 [Example 363, (R)-3-Hydroxy-1-methyl-3-(3-(6-(2-(((R)-1-(pyridin-2-yl)ethyl)amino)pyrimidin-4-yl)pyridin-2-yl)isoxazol-5-yl)pyrrolidin-2-one]	50 to 500
CCn1cc(Nc2nccc(-c3cccc(-n4cc([C@]5(O)CCN(C)C5=O)nn4)n3)n2)c(C)n1 [Example 402, (R)-3-(1-(6-(2-((1-Ethyl-3-methyl-1H-pyrazol-4-yl)amino)pyrimidin-4-yl)pyridin-2-yl)-1H-1,2,3-triazol-4-yl)-3-hydroxy-1-methylpyrrolidin-2-one]	< 50
COC(CNc1nccc(-c2cccc(-c3cc([C@]4(O)CCN(C)C4=O)on3)n2)n1)C(F)(F)F (mixture of isomers) [Example 461, (3R)-3-Hydroxy-1-methyl-3-(3-(6-(2-((3,3,3-trifluoro-2-methoxypropyl)amino)pyrimidin-4-yl)pyridin-2-yl)isoxazol-5-yl)pyrrolidin-2-one]	50 to 500
C[C@H](Nc1nccc(-c2cccc(-c3cc([C@]4(O)CCN(C)C4=O)on3)n2)n1)c1cn[nH]c1 (single isomer, unassigned) [Example 149]	50 to 500
CN1CC[C@@](O)(c2cn(-c3cccc(-c4ccnc(Nc5ccn(C)n5)n4)n3)nn2)C1=O [Example 75, (R)-3-Hydroxy-1-methyl-3-(1-(6-(2-((1-methyl-1H-pyrazol-3-yl)amino)pyrimidin-4-yl)pyridin-2-yl)-1H-1,2,3-triazol-4-yl)pyrrolidin-2-one]	< 50
CN1CC[C@@](O)(c2cc(-c3cccc(-c4ccnc(N[C@H]5CCCC[C@H]5O)n4)n3)no2)C1=O (single isomer, unassigned) [Example 337]	> 500
CN1CC[C@@](O)(c2cc(-c3cccc(-c4ccnc(Nc5cnn6c5CCCC6)n4)n3)no2)C1=O [Example 259, (R)-3-Hydroxy-1-methyl-3-(3-(6-(2-((4,5,6,7-tetrahydropyrazolo[1,5-a]pyridin-3-yl)amino)pyrimidin-4-yl)pyridin-2-yl)isoxazol-5-yl)pyrrolidin-2-one]	< 50
CN1CC[C@@](O)(c2cc(-c3cccc(-c4ccnc(N[C@@H]5CCOC5)n4)c3)no2)C1=O [Example 12, (R)-3-Hydroxy-1-methyl-3-(3-(3-(2-(((R)-tetrahydrofuran-3-yl)amino)pyrimidin-4-yl)phenyl)isoxazol-5-yl)pyrrolidin-2-one]	> 500
CN1CC[C@@](O)(c2cc(-c3cccc(-c4ccnc(Nc5ccn(C)n5)n4)n3)[nH]n2)C1=O (single isomer, unassigned) [Example 85]	50 to 500
Cc1cccc(Nc2nccc(-c3cccc(-c4cc([C@]5(O)CCN(C)C5=O)on4)n3)n2)n1 [Example 244, (R)-3-Hydroxy-1-methyl-3-(3-(6-(2-((6-methylpyridin-2-yl)amino)pyrimidin-4-yl)pyridin-2-yl)isoxazol-5-yl)pyrrolidin-2-one]	50 to 500
CN1CC[C@@](O)(c2cc(-c3cccc(-c4ccnc(N[C@@H]5COC[C@H]5F)n4)n3)no2)C1=O [Example 342, (R)-3-(3-(6-(2-(((trans)-4-Fluorotetrahydrofuran-3-yl)amino)pyrimidin-4-yl)pyridin-2-yl)isoxazol-5-yl)-3-hydroxy-1-methylpyrrolidin-2-one]	50 to 500
C[C@@H]1OCC[C@@H]1Nc1nccc(-c2cccc(-c3cc([C@]4(O)CCN(C)C4=O)on3)n2)n1 (single isomer, unassigned) [Example 347]	50 to 500
COc1cccc(Nc2nccc(-c3cccc(-c4cc([C@]5(O)CCN(C)C5=O)on4)n3)n2)n1 [Example 322, (R)-3-Hydroxy-3-(3-(6-(2-((6-methoxypyridin-2-yl)amino)pyrimidin-4-yl)pyridin-2-yl)isoxazol-5-yl)-1-methylpyrrolidin-2-one]	50 to 500
CN1CC[C@@](O)(c2cc(-c3cccc(-c4ccnc(N[C@@H]5CCCOC5)n4)n3)no2)C1=O [Example 455, (R)-3-Hydroxy-1-methyl-3-(3-(6-(2-(((R)-tetrahydro-2H-pyran-3-yl)amino)pyrimidin-4-yl)pyridin-2-yl)isoxazol-5-yl)pyrrolidin-2-one]	> 500
Cc1ccc(Nc2nccc(-c3cccc(-c4cc([C@]5(O)CCN(C)C5=O)on4)n3)n2)cn1 [Example 332, (R)-3-Hydroxy-1-methyl-3-(3-(6-(2-((6-methylpyridin-3-yl)amino)pyrimidin-4-yl)pyridin-2-yl)isoxazol-5-yl)pyrrolidin-2-one]	50 to 500

Structure (SMILES)	IC50 [nM]
CN1CC[C@@](O)(c2cc(-c3cccc(-c4ccnc(NC(c5cnn(C)c5)C(F)(F)F)n4)n3)no2)C1=O (mixture of isomers) [Example 96, (R)-3-Hydroxy-1-methyl-3-(3-(6-(2-(((RS)-2,2,2-trifluoro-1-(1-methyl-1H-pyrazol-4-yl)ethyl)amino)pyrimidin-4-yl)pyridin-2-yl)isoxazol-5-yl)pyrrolidin-2-one]	50 to 500
CC(Nc1nccc(-c2cccc(-c3cc([C@]4(O)CCN(C)C4=O)on3)n2)n1)c1cnco1 (stereo partly drawn) [Example 372, (3R)-3-Hydroxy-1-methyl-3-(3-(6-(2-((1-(oxazol-5-yl)ethyl)amino)pyrimidin-4-yl)pyridin-2-yl)isoxazol-5-yl)pyrrolidin-2-one]	50 to 500
Cc1nn(C2CCN(C)CC2)cc1Nc1nccc(-c2cccc(-c3cc([C@]4(O)CCN(C)C4=O)on3)n2)n1 [Example 252]	50 to 500
CN1CC[C@H](n2cc(Nc3nccc(-c4cccc(-c5cc([C@]6(O)CCN(C)C6=O)on5)n4)n3)cn2)[C@@H](F)C1 (single isomer, unassigned) [Example 201]	< 50
CN1C(=O)[C@](O)(c2cc(-c3cccc(-c4ccnc(Nc5cnn(C)c5)n4)n3)no2)C[C@H]1C(F)(F)F [Example 6, (3R,5S)-3-Hydroxy-1-methyl-3-(3-(6-(2-((1-methyl-1H-pyrazol-4-yl)amino)pyrimidin-4-yl)pyridin-2-yl)isoxazol-5-yl)-5-(trifluoromethyl)pyrrolidin-2-one]	50 to 500
CN1CC[C@@](O)(c2cc(-c3cccc(-c4ccnc(Nc5ccn(C)n5)n4)c3)no2)C1=O [Example 25, (R)-3-Hydroxy-1-methyl-3-(3-(3-(2-((1-methyl-1H-pyrazol-3-yl)amino)pyrimidin-4-yl)phenyl)isoxazol-5-yl)pyrrolidin-2-one]	50 to 500
CN1CC[C@@](O)(c2cc(-c3cccc(-c4ccnc(Nc5cnn(C)c5C5CC5)n4)n3)no2)C1=O [Example 228, (R)-3-(3-(6-(2-((5-Cyclopropyl-1-methyl-1H-pyrazol-4-yl)amino)pyrimidin-4-yl)pyridin-2-yl)isoxazol-5-yl)-3-hydroxy-1-methylpyrrolidin-2-one]	< 50
Cc1nn(-c2nccc(-c3cccc(-c4cc([C@]5(O)CCN(C)C5=O)on4)n3)n2)cc1N [Example 37, (R)-3-(3-(6-(2-(4-Amino-3-methyl-1H-pyrazol-1-yl)pyrimidin-4-yl)pyridin-2-yl)isoxazol-5-yl)-3-hydroxy-1-methylpyrrolidin-2-one]	> 500
CN1CC(F)(F)[C@@](O)(c2cc(-c3cccc(-c4ccnc(Nc5ccn(C)n5)n4)n3)no2)C1=O [Example 27, (R)-4,4-Difluoro-3-hydroxy-1-methyl-3-(3-(6-(2-((1-methyl-1H-pyrazol-3-yl)amino)pyrimidin-4-yl)pyridin-2-yl)isoxazol-5-yl)pyrrolidin-2-one]	< 50
C[C@H](Nc1nccc(-c2cccc(-c3cc([C@]4(O)CCN(C)C4=O)on3)n2)n1)c1cnc2ccccn12 (single isomer, unassigned) [Example 161]	50 to 500
CN(C)C[C@H](Nc1nccc(-c2cccc(-c3cc([C@]4(O)CCN(C)C4=O)on3)n2)n1)c1ccccc1 [Example 396, (R)-3-(3-(6-(2-(((R)-2-(Dimethylamino)-1-phenylethyl)amino)pyrimidin-4-yl)pyridin-2-yl)isoxazol-5-yl)-3-hydroxy-1-methylpyrrolidin-2-one]	> 500
Cc1cc(C(C)Nc2nccc(-c3cccc(-c4cc([C@]5(O)CCN(C)C5=O)on4)n3)n2)on1 (stereo partly drawn) [Example 382, (3R)-3-Hydroxy-1-methyl-3-(3-(6-(2-((1-(3-methylisoxazol-5-yl)ethyl)amino)pyrimidin-4-yl)pyridin-2-yl)isoxazol-5-yl)pyrrolidin-2-one]	50 to 500
Cc1cc(Nc2nccc(-c3cccc(-c4cc([C@]5(O)CCN(C)C5=O)on4)n3)n2)cc(C)n1 [Example 283, (R)-3-(3-(6-(2-((2,6-Dimethylpyridin-4-yl)amino)pyrimidin-4-yl)pyridin-2-yl)isoxazol-5-yl)-3-hydroxy-1-methylpyrrolidin-2-one]	< 50
CN1CC[C@@](O)(c2nnc(-c3cccc(-c4ccnc(Nc5cnn(C)c5Cl)n4)n3)s2)C1=O [Example 102, (S)-3-(5-(6-(2-((5-Chloro-1-methyl-1H-pyrazol-4-yl)amino)pyrimidin-4-yl)pyridin-2-yl)-1,3,4-thiadiazol-2-yl)-3-hydroxy-1-methylpyrrolidin-2-one]	50 to 500
CN1CC[C@@](O)(c2cc(-c3cccc(-c4ccnc(Nc5cnn(C)c5N)n4)c3)no2)C1=O [Example 21, (R)-3-(3-(3-(2-((5-Amino-1-methyl-1H-pyrazol-4-yl)amino)pyrimidin-4-yl)phenyl)isoxazol-5-yl)-3-hydroxy-1-methylpyrrolidin-2-one]	> 500
